ChEMBL document CHEMBL4270500, “From the hive: Honey, a novel weapon against cancer” (Eur J Med Chem, 2017)

Tests used:
KYSE-510 = assay: Cytotoxicity in human KYSE-510 cells assessed as reduction in cell viability incubated for 24 to 72 hrs by MTT assay; type: functional, cell-based
HeLa = assay: Cytotoxicity in human HeLa cells assessed as reduction in cell viability incubated for 24 to 72 hrs by MTT assay; type: functional, cell-based
[1] = Cytotoxicity in human SP6.5 cells assessed as reduction in cell viability incubated for 48 hrs by MTT assay; type: functional, cell-based
[2] = Cytotoxicity in human M17 cells assessed as reduction in cell viability incubated for 48 hrs by MTT assay; type: functional, cell-based
Caco-2 = assay: Inhibition of cell proliferation of human Caco2 cells at 1500 umol/L incubated for 1 to 3 days by trypan blue dye based hemocytometry relative to untreated control; type: functional
Ehrlich [3] = assay: Antitumour activity against mouse EAC implanted in BALB/c mouse assessed as inhibition of tumor growth at 100 mg/kg, ip dosed consecutively from day 1 to 9 relative to untreated control; type: functional; settings: 24 h, read-out: TGI
Ehrlich [4] = assay: Antitumour activity against mouse EAC implanted in BALB/c mouse assessed as inhibition of solid tumor growth at 100 mg/kg, ip dosed consecutively from day 1 to 9 relative to untreated control; type: functional; settings: 24 h, read-out: TGI

O=c1cc(-c2ccccc2)oc2cc(O)cc(O)c12 [CHRYSIN] showed an IC50 (KYSE-510) of 63 µM, an IC50 (HeLa) of 14.2 µM and an IC50 [1] of 28.3 µM. It also gave an IC50 [2] of 35.8 µM.

O=C(O)/C=C/c1ccc(O)cc1 [COUMARIC ACID] showed an inhibition at 1500 µM (Caco-2) of 43 to 75%.

C=CCc1ccc(O)c(OC)c1 [EUGENOL] gave an inhibition in vivo at 100 mg/kg (Ehrlich [3]) of 28.9% and an inhibition in vivo at 100 mg/kg (Ehrlich [4]) of 24.4%.
